{"source": "patent US20260060239A1", "about": "“NATURAL-BASED SALICYLIC ACID POLY(ANHYDRIDE ESTER) HYDROGELS FOR AGRICULTURAL APPLICATIONS” (The Regents of The University of California, priority 2022, published 2026)", "key": {"[1]": {"system": "micro-tom tomato plants", "assay_type": "in vivo", "experimental": "The Percival chambers were used to mimic environmental conditions.\n(§1) All plants received 75 mL right after dose application. […] Death plants were removed from the study.\n(§2) At day 48 of the plant cycle, groups correspondent to the drought condition had all the water removed from the tray and were kept in the chamber. Plants under normal conditions had regularly water exchange two times a week until the end of the plant cycle. All plants were closely monitored, and visible observations were recorded, including measurements of plant height, number of leaves, branches, flower buds, flowers, and tomatoed were taken regularly. Clay and fertilizer were applied as needed and dead plants were removed from the study.\nThe harvest day was determined by the abundant number of red tomatoes: plant measurements were performed as described above. Plants were removed from their pots and clay was washed out of the roots. Tomatoes were harvested, photographed, and measured (diameter, height and mass). Individual plants were also photographed. Root and plant length was recorded, and plant mass was measured using a scale."}, "[2]": {"system": "micro-tom tomato plants", "settings": "for percent plant growth (plant height) during dosage window: FIG. 9A", "experimental": "Exogenous application of salicylic acid favors plants under stress by regulating processes such as photosynthesis, membrane permeability, nutrient uptake, transpiration, and the activity of antioxidant enzymes. […] Final measurements of plant height, water content, root length, and tomato production yield were also performed.\nMicro-tom was germinated from seeds under hydroponic conditions and grown under vertical farming conditions. Soilless clay media was used, and smart fertilizer was applied. Plants were incubated under normal conditions for 16 days. Seedlings were then transplanted using pre-wet clay and incubated under normal conditions in Percival chambers with abundant water supply and regular water exchanges for an additional 34 days. The Percival chambers were used to mimic environmental conditions. The day and night cycles were set for 16 hour (day) at 25° C. followed by 8 hour (night) at 25° C. CO2 levels were maintained at 410 ppm with 70% relative humidity.\nEach plant was labeled, and initial measurements were taken including plant height, total number of leaves, branches, and total number of flower buds, flowers and tomatoes if applicable. Individual group pictures were taken as visual record and first dose was applied accordantly to the group's requirements and schedules (FIG. 7). Dose regimen was similar between all groups with a total duration of 7 days (Dosage Window). Doses were applied at days 0, 2 and 4 of the dosage window. Remaining water in the group trays were removed right before dose applications. Chemicals were applied as a powder directly in the clay surface avoiding contact with the plant. All plants received 75 mL right after dose application. At day 7, remaining water in the trays were removed, final plants measurements and visual observation was recorded. Death plants were removed from the study. Extra clay and fertilizer were added, and DI-water was applied to all plants: 150 mL to normal plants and 50 mL to drought plants to activate the fertilizer."}, "[3]": {"system": "micro-tom tomato plants", "test": "Treatment window under drought stress conditions (water supply removed)", "assay_type": "in vivo", "settings": "for first death under drought: FIG. 12", "experimental": "Plants were incubated under normal conditions for 16 days. […] The Percival chambers were used to mimic environmental conditions.\nas §1\nas §2, with “The treatment window corresponds to the period of time where the groups were exposed to either normal conditions with abundant water supply or to intense drought stress conditions where the water supply was completely removed until plants were found dead. At” for “At”"}, "[4]": {"settings": "3x: three dosages of 0.05 mmol SA"}}, "note": "Read-outs that look alike come from different tables or passages of the source."}
{"smiles": "O=C(O)c1ccccc1O", "note": "[SA, salicylic acid]", "values": [{"measurement": "plants dead at time of harvest", "setting": "[1]; 1x, across the study, FIG. 15", "result": "three"}, {"measurement": "total number of red tomatoes per group", "setting": "[1]; 1x, harvest day, FIG. 19B", "result": "least number of red tomatoes"}, {"measurement": "percent plant growth after 14 days", "setting": "[1]; 1x, normal conditions, FIG. 10A", "result": "lowest percent growth"}, {"measurement": "variation of number of branches during the treatment window", "setting": "[1]; 1x, normal conditions, FIG. 13B", "result": "highest variation"}, {"measurement": "roots holding the clay after removal from the pot", "setting": "[1]; 3x, harvest", "result": "stronger at holding the clay in place"}, {"measurement": "total number of tomatoes per group", "setting": "[1]; 3x, harvest day, compared with DI water, FIG. 19A", "result": "similar"}, {"measurement": "percent plant growth (plant height) during dosage window", "setting": "[2]; 1x: single dose 0.15 mmol SA or equivalent", "result": "negligible"}, {"measurement": "variation in the number of branches during dosage window", "setting": "[2]; 1x: single dose 0.15 mmol, FIG. 9B", "result": "decrease"}, {"measurement": "stress and deaths after the dosage window", "setting": "[2]; 1x: single powder dose, 0.15 mmol SA (or equivalent in polymer) per plant, FIG. 8", "result": "more harmful"}, {"measurement": "percent plant growth (plant height) during dosage window", "setting": "[2]; [4]", "result": "smaller than the DI-water control group"}, {"measurement": "stress caused during dosage window", "setting": "[2]; 3x: three dosages of 0.05 mmol SA, compared with SA 1x", "result": "less significative"}, {"measurement": "plants mortality right after treatment", "setting": "[2]; compared with SAPAE", "result": "higher"}, {"measurement": "first death under drought", "setting": "[3]; 1x: single dose 0.15 mmol SA or equivalent, day of treatment window", "result": 17, "unit": "days"}, {"measurement": "first death under drought", "setting": "[3]; [4]", "result": 20, "unit": "days"}, {"measurement": "flower production under drought stress", "setting": "[3]; 3x, 14 days treatment time point, flower buds, no opened flowers, FIG. 11", "result": "second-best group"}]}
